# In patent US4927809A, “Oligopeptidyl nitrile derivatives, agents containing them and their use” (Behringwerke Aktiengesellschaft, priority 1986, dated 1990):
# How the values were obtained:
# [1] = biological target: T1, alpha human thrombin (Homo sapiens, UniProt P00734); assay: Determination of the thrombin time (concentration doubling the thrombin time) in standard human plasma; assay type: biochemical; conditions: pH 7.6, 37° C., alpha human thrombin 3.0 IU/ml
# T1 construct: alpha human thrombin
# Experimental: The activity of the substances prepared as in Examples 1, 2 or 3 was ascertained by determination of the thrombin time. This entailed the concentration (in μmol/l) which doubled the thrombin time being ascertained.
# 50 μl of inhibitor solution of various concentrations, 50 μl of standard human plasma and 100 μl of diethylbarbituric acid/sodium acetate buffer, pH 7.6, were incubated at 37° C. for 45 seconds and 100 μl of alpha human thrombin (3.0 IU/ml) were added. The tests were carried out on a Schnitger & Gross apparatus for determination of the thrombin time.
# [2] = system: mice; conditions: mouse, in vivo, iv
# Experimental: The toxicity of H-D-Phe-Pro-Arg-CN × 2HCOOH […] in an animal model. The test substance was administered i.v. to mice. Clinically detectable pathological findings were found at and above a dose of 50 mg/kg. The dose for a therapeutic effect ought to be about 1-4 mg/kg.
# [3] = biological target: T1, alpha human thrombin; assay: Inhibition constant (Ki) against alpha human thrombin; assay type: biochemical
compound,measurement,setting,value
"CC(C)(C)OC(=O)N[C@H](Cc1ccccc1)C(=O)N1CCC[C@H]1C(=O)NC(C#N)CCCNC(=N)N (stereo partly drawn) [Example 1, N(alpha)-Boc-D-Phenylalanyl-L-prolyl-L-(1-amino-4-guanidino)valeronitrile]",Doubling of the thrombin time at concentration (final conc.),[1],3.66 µmol/L
"N#CC(CCCNC(=N)N)NC(=O)[C@@H]1CCCN1C(=O)[C@@H](Cc1ccccc1)NC(=O)OCC1c2ccccc2-c2ccccc21 (stereo partly drawn) [Example 2, N(alpha)-Fmoc-D-Phenylalanyl-L-prolyl-L-(1-amino-4-guanidino)valeronitrile]",Doubling of the thrombin time at concentration (final conc.),[1],3.66 µmol/L
"N#CC(CCCNC(=N)N)NC(=O)[C@@H]1CCCN1C(=O)[C@H](N)Cc1ccccc1.O=C(O)C(F)(F)F.O=C(O)C(F)(F)F (stereo partly drawn) [Example 3, H-D-Phenylalanyl-L-prolyl-L-(1-amino-4-guanidino)valeronitrile ditrifluoroacetate]",Doubling of the thrombin time at concentration (final conc.),[1],1.1 µmol/L
N#C[C@H](CCCNC(=N)N)NC(=O)[C@@H]1CCCN1C(=O)[C@H](N)Cc1ccccc1.O=CO.O=CO [H-D-Phe-Pro-Arg-CN × 2HCOOH],Dose at and above which clinically detectable pathological findings were found,[2],≥ 50 mg/kg
same,Ki,[3],600 nM
